# Measured values from PMC10959927, “Platinum iodido drugs show potential anti-tumor activity, affecting cancer cell metabolism and inducing ROS and senescence in gastrointestinal cancer cells” (Communications Biology, 2024).
# “And” between values parts separate entries of the source, which are not always exact repeats. Equal values may be shown once. Read-outs that look alike come from different tables or passages of the source.
# Tests used:
# [1] = test system: PANC1 cells; assay: Seahorse XF OCR, ECAR and energy map; type: cell-based, human; set-up: Basal resp. / Maximal resp. / SRC: unit not given here; conditions: PANC1, IC50 24 h
# Protocol: (§1) Oxygen Consumption Rate (OCR), Extra Cellular Acidification Rate (ECAR) and Energy map measurements. Cells were plated in XF HS Miniplates (Seahorse Bioscience) at a cellular density of 1 × 10^4 cells/well and incubated overnight. […] After an OCR baseline measurement, the minimum oxygen consumption was determined by adding 1.5 µM oligomycin (O) and the maximal respiration rate was assessed by adding 1 µM carbonyl cyanide p-trifluoro methoxyphenylhydrazone (FCCP, F). At the end of the experiment, the non-mitochondrial oxygen consumption was evaluated by adding both 0.5 µM rotenone (R) and antimycin (A). Experiments were run in a XF HS Mini analyzer (Seahorse Agilent), and raw data were normalized to total protein using a BCA protein assay kit (Cat. no. 23225, Thermo Scientific).
# [2] = test system: MKN45 cells; assay: Seahorse XF OCR, ECAR and energy map; type: cell-based, human; set-up: Basal resp. / Maximal resp. / SRC: unit not given here; conditions: MKN45, IC50 24 h
# Protocol: as §1
# [3] = test system: PANC1 cells; assay: Lactate production assay; type: cell-based, human; conditions: replicates
# Protocol: (§2) Lactate production assay. […] Proteins were removed from 50 μL of the medium by adding 100 μL of 8% Percloric Acid and 40% EtOH at 4 °C, and centrifuging at 2 × 10^4 g for 10 min at 4 °C. The supernatants were then frozen until the lactate in 15 μL of each sample, or lactate standard, was measured mixed with 150 μl of assay buffer (0.5 M glycine [pH 9.5], 0.2 M Hydrazine, 3.4 mM EDTA), 100 μl of H20, 5 μL of 1100 U/mL LDH (Roche) and 30 μL of 15 mM NAD + . NADH production was evaluated by measuring absorbance at 340 nm in a multiplate reader (Synergy HT, Biotek) and it was proportional to the lactic acid concentration in the sample after a 2 h incubation. The lactate concentration was normalized to the total amount of protein measured with the Micro BCA Protein Assay Kit (Thermo Scientific). Assays were performed in triplicate in three independent experiments.
# [4] = test system: AGS cells; assay: Lactate production assay; type: cell-based, human; conditions: replicates
# Protocol: as §2
# [5] = test system: MKN45 cells; assay: Lactate production assay; type: cell-based, human; conditions: replicates
# Protocol: as §2
# [6] = test system: PANC1 cells; assay: Cell viability, crystal violet staining; conditions: for Cell Viability without NAC: PANC1 cells, Fig. S6A; for IC50: read-out: IC50 concentration (± SD) at 48 h, 48 h
# Protocol: (§3) Cell viability was assessed using a crystal violet-based staining method. […] The cells (2 × 10^5) were seeded in 24-multiwell dishes in 0.5 mL of complete medium and incubated overnight. […] After 48 h, cells were fixed with 1% glutaraldehyde (20–30 min), washed with distilled water, and stained with 0.1% crystal violet. […] IC50 were calculated by using GraphPad Prism (version 8.0). Nonlinear regression was used to fit the data to the log (inhibitor) versus response (variable slope).
# [7] = test system: AGS cells; assay: Cell viability, crystal violet staining; conditions: for Cell Viability without NAC: AGS cells, Fig. S6A; for IC50: read-out: IC50 concentration (± SD) at 48 h, 48 h
# Protocol: as §3
# [8] = test system: MKN45 cells; assay: Cell viability, crystal violet staining; conditions: for Cell Viability without NAC: MKN45 cells, Fig. S6A; for IC50: read-out: IC50 concentration (± SD) at 48 h, 48 h
# Protocol: as §3
# [9] = test system: AGS cells; assay: Seahorse XF OCR, ECAR and energy map; type: cell-based, human; conditions: AGS, IC50 24 h
# Protocol: as §1
# [10] = test system: PANC1 cells; assay: ROS detection by confocal microscopy (DHE, MitoSox); type: cell-based, human; conditions: PANC1, 1 h treatment; H2O2 200 µM, CDDP 10 µM, I5 20 µM, I6 20 µM
# Protocol: Tumor cells were seeded at a density of 3 × 10^5 cells in 15 µm 8-well IBIDI plates and incubated overnight. […] Subsequently, cells were stained with 10 μM of dihydroethidium (DHE, cytosolic O2^·- probe, Sigma-Aldrich) or with 5 μM of Mitosox (mitochondrial O2^·- probe, Sigma-Aldrich) for 15–30 min[79] and then visualized on a confocal microscope (Confocal LSM 710 Zeiss, Biomedical Research Institute Alberto Sols, IIBm-CSIC-UAM, Madrid, Spain). The image analysis was realized using the software program Image J.
# [11] = test system: PANC1 cells; assay: ATP determination assay (bioluminescence); type: cell-based, human; conditions: replicates
# Protocol: (§4) ATP determination assay. […] The analysis was performed using the ATP Bioluminescense Assay Kit CLS II (Cat. no. 11699695001, Roche) according to the manufacturer’s instructions. […] Data were normalized to total protein using the BCA protein assay kit (Thermo Scientific).
# [12] = test system: AGS cells; assay: ATP determination assay (bioluminescence); type: cell-based, human; conditions: replicates
# Protocol: as §4
# [13] = test system: MKN45 cells; assay: ATP determination assay (bioluminescence); type: cell-based, human; conditions: replicates
# Protocol: as §4
smiles,measurement,setting,value
"CC(C)[NH][Pt@SP3]([I])([I])[NH]C(C)C [I5, trans-[PtI2(isopropylamine)2]]",Basal resp.,[1],4.37 and 2.91 and 2.68
same,effect on ECAR,[1],strong effect
same,OCR,[1]; time 14.5 min (I5) / 14.5 min (I6),10.9576 pmoles/min/µg protein and 5.698 pmoles/min/µg protein and 5.804 pmoles/min/µg protein
same,OCR,[1]; time 21.08 min (I5) / 21.07 min (I6),8.99 pmoles/min/µg protein and 4.967 pmoles/min/µg protein and 6.036 pmoles/min/µg protein
same,OCR,[1]; time 60.22 min (I5) / 60.14 min (I6),6.526 pmoles/min/µg protein and 3.324 pmoles/min/µg protein and 3.875 pmoles/min/µg protein
same,Basal resp.,[2],41.12 and 25.16 and 29.99
same,Maximal resp.,[2],70.47 and 41.2 and 48.53
same,SRC,[2],29.35 and 16.04 and 18.54
same,effect on ECAR,[2],strong effect
same,OCR,[2]; time 1.53 min (I5) / 1.53 min (I6),87.0221 pmoles/min/µg protein and 65.8202 pmoles/min/µg protein and 67.2404 pmoles/min/µg protein
same,OCR,[2]; time 8.04 min (I5) / 8.03 min (I6),81.395 pmoles/min/µg protein and 60.0787 pmoles/min/µg protein and 61.987 pmoles/min/µg protein
same,OCR,[2]; time 14.51 min (I5) / 14.5 min (I6),68.3352 pmoles/min/µg protein and 45.5888 pmoles/min/µg protein and 48.6636 pmoles/min/µg protein
same,OCR,[2]; time 40.66 min (I5) / 40.62 min (I6),96.0748 pmoles/min/µg protein and 62.8442 pmoles/min/µg protein and 67.0243 pmoles/min/µg protein
same,OCR,[2]; time 53.68 min (I5) / 53.58 min (I6),97.9086 pmoles/min/µg protein and 60.6467 pmoles/min/µg protein and 66.2231 pmoles/min/µg protein
same,OCR,[2]; time 60.27 min (I5) / 60.14 min (I6),32.7644 pmoles/min/µg protein and 24.8353 pmoles/min/µg protein and 23.7602 pmoles/min/µg protein
same,OCR,[2]; time 66.75 min (I5) / 66.62 min (I6),29.7633 pmoles/min/µg protein and 21.9547 pmoles/min/µg protein and 20.2025 pmoles/min/µg protein
same,OCR,[2]; time 73.23 min (I5) / 73.1 min (I6),27.2124 pmoles/min/µg protein and 20.4304 pmoles/min/µg protein and 18.6726 pmoles/min/µg protein
same,lactate assay,[3],5.32 Lactate mM/mg prot and 7.44 Lactate mM/mg prot and 7.29 Lactate mM/mg prot and 4.009 Lactate mM/mg prot and 7.435 Lactate mM/mg prot and 6.316 Lactate mM/mg prot and 4.98 Lactate mM/mg prot and 4.88 Lactate mM/mg prot and 4.97 Lactate mM/mg prot
same,lactate assay,[4],1.16 Lactate mM/mg prot and 3.26 Lactate mM/mg prot and 1.86 Lactate mM/mg prot and 0.01 Lactate mM/mg prot and 0.05431 Lactate mM/mg prot and 0.02716 Lactate mM/mg prot and 0.02 Lactate mM/mg prot and 0.03 Lactate mM/mg prot
same,lactate assay,[5],3.26 Lactate mM/mg prot and 4 Lactate mM/mg prot and 1.31 Lactate mM/mg prot and 1.423 Lactate mM/mg prot and 0.8373 Lactate mM/mg prot and 1.863 Lactate mM/mg prot and 1.55 Lactate mM/mg prot and 1.53 Lactate mM/mg prot and 1.48 Lactate mM/mg prot
same,Cell Viability without NAC,[6]; dose 10 µM,85.9915 and 83.1095 and 92.9481
same,Cell Viability without NAC,[6]; dose 25 µM,34.4587 and 38.5831 and 38.2547
same,Cell Viability without NAC,[6]; dose 50 µM,18.5972 and 30.025 and 31.7453
same,Cell Viability without NAC,[6]; dose 75 µM,17.1129 and 21.5975 and 27.2406
same,IC50,"[6]; PANC1, NAC (+) 0.5 mM",> 100 µM
same,IC50,"[6]; PANC1, NAC (-)",18 µM and 20 µM and 18.2 µM
same,IC25 concentration,[7]; AGS,15 µM
same,Cell Viability without NAC,[7]; dose 10 µM,104.459
same,Cell Viability without NAC,[7]; dose 50 µM,35.6312
same,Cell Viability without NAC,[7]; dose 75 µM,33.3189
same,IC50,"[7]; AGS, NAC (+) 0.5 mM",> 100 µM
same,IC50,"[7]; AGS, NAC (-)",40 µM and 38.2 µM
same,Cell Viability without NAC,[8]; dose 10 µM,97.9702 and 91.0232 and 100.944
same,Cell Viability without NAC,[8]; dose 25 µM,85.8879 and 70.3076 and 69.3928
same,Cell Viability without NAC,[8]; dose 50 µM,44.0762 and 29.818 and 39.7772
same,Cell Viability without NAC,[8]; dose 75 µM,32.4358 and 27.3279 and 29.4931
same,IC50,"[8]; MKN45, NAC (+) 0.5 mM",> 100 µM
same,IC50,"[8]; MKN45, NAC (-)",30 µM and 28.7 µM
same,effect on ECAR,[9],strong effect
same,OCR,[9]; time 21.13 min (I5) / 21.08 min (I6),33.7993 pmoles/min/µg protein and 17.1923 pmoles/min/µg protein and 31.197 pmoles/min/µg protein
same,OCR,[9]; time 60.15 min (I5) / 60.16 min (I6),22.0275 pmoles/min/µg protein and 13.2859 pmoles/min/µg protein and 22.5877 pmoles/min/µg protein
same,OCR,[9]; time 66.63 min (I5) / 66.65 min (I6),21.2372 pmoles/min/µg protein and 12.4063 pmoles/min/µg protein and 20.3044 pmoles/min/µg protein
same,OCR,[9]; time 73.12 min (I5) / 73.14 min (I6),19.5577 pmoles/min/µg protein and 11.425 pmoles/min/µg protein and 19.4877 pmoles/min/µg protein
same,"DHE fluorescence intensity (per cell), cytosolic O2•−",[10],90.3731 and 85.3678 and 75.6942 and 74.4248 and 73.3485 and 72.8941
same,ATP assay,[11],7640.3 nmoles ATP/mg prot and 496.05 nmoles ATP/mg prot and 2595.09 nmoles ATP/mg prot and 2106 nmoles ATP/mg prot and 8408.46 nmoles ATP/mg prot and 9059.04 nmoles ATP/mg prot and 9127 nmoles ATP/mg prot and 10292.6 nmoles ATP/mg prot and 9600 nmoles ATP/mg prot
same,ATP assay,[12],8571 nmoles ATP/mg prot and 150.2 nmoles ATP/mg prot and 0.01 nmoles ATP/mg prot and 0.05 nmoles ATP/mg prot and 4895.31 nmoles ATP/mg prot and 5882.71 nmoles ATP/mg prot and 4424 nmoles ATP/mg prot and 7769.74 nmoles ATP/mg prot and 709.57 nmoles ATP/mg prot
same,ATP assay,[13],11672 nmoles ATP/mg prot and 496.26 nmoles ATP/mg prot and 8257.16 nmoles ATP/mg prot and 8443 nmoles ATP/mg prot and 9557.85 nmoles ATP/mg prot and 7684.95 nmoles ATP/mg prot and 11572 nmoles ATP/mg prot and 11682.5 nmoles ATP/mg prot and 9034.25 nmoles ATP/mg prot
